Common to all, as to assay type: physicochemical
Series [1] can be described thus: surface tension of aqueous solutions (du Nouy tensiometer). The following applies: diluted from 10% solids in water/isopropyl alcohol; for Surface tension (dynes/cm) at 100 ppm: 100 ppm (0.01% solids) in deionized water; for Surface tension (dynes/cm) at 500 ppm: 500 ppm (0.05% solids) in deionized water. As for the experimental part:
(§1) In the following Examples and Comparative Examples, fluoroaliphatic radical-containing compounds were prepared. The surface tension of water and isopropyl alcohol solutions containing these compounds was measured using a du Nouy tensiometer. The foaming properties of these solutions were also evaluated by generating foam and measuring the foam volume and half life.
The fluorochemical solutions obtained in Examples 1 to 6 and Comparative Examples C1 to C12 were diluted to 10% solids by dilution with a solution of 70% by volume water and 30% by volume isopropyl alcohol. Further dilutions to 0.01% solids (100 ppm), and 0.05% solids (500 ppm), were done with deionized water.

Series [2] is described as follows: foam volume of surfactant solutions (Hobart mixer, graduated cylinder). The following applies: for Foam Volume: 200 mL of 500 ppm solution, Hobart mixer 3 minutes at medium speed; for foam volume relative to anionic Comparative Examples C4 to C7 (in words): 500 ppm, versus anionic Comparative Examples C4 to C7. As for the experimental part:
as §1
(§2) Foam was generated from 200 mL of the 500 ppm solutions used for measuring surface tension. The surfactant solutions were mixed with a Hobart mixer for 3 minutes at medium speed. Foam volume (cubic centimeters of foam) was measured in a graduated cylinder. Foam half-life was measured as the seconds needed to drain 100 mL of solution from the foam.

The nature of series [3]: foam half-life (seconds needed to drain 100 mL of solution from the foam). The following applies: for Foam Half-Life: 200 mL of 500 ppm solution, seconds to drain 100 mL of solution from the foam; for foam half-life relative to anionic Comparative Examples C4 to C7 (in words): 500 ppm, versus anionic Comparative Examples C4 to C7. The procedure: as §1, §2

`CCN(CCC(=O)NCCC[N+](C)(C)CC)S(=O)(=O)C(F)(F)C(F)(F)C(F)(F)C(F)(F)C(F)(F)C(F)(F)C(F)(F)C(F)(F)F` [Comparative Example C8]: in series [1], the “Surface tension (dynes/cm) at 100 ppm” value was 20.5 dynes/cm and the “Surface tension (dynes/cm) at 500 ppm” value came to 18.5 dynes/cm. The “Foam Volume” value in series [2] is 600 cm^3. In addition, the “Foam Half-Life” value in series [3] is “less than 30 sec”.

On to `CCN(CCC(=O)O)S(=O)(=O)C(F)(F)C(F)(F)C(F)(F)C(F)(F)C(F)(F)C(F)(F)C(F)(F)C(F)(F)F` [Comparative Example C7], for which, in series [1], the “Surface tension (dynes/cm) at 100 ppm” value worked out at 19.1 dynes/cm and the “Surface tension (dynes/cm) at 500 ppm” value is 17.2 dynes/cm. In series [2], the “Foam Volume” value is given as 2200 cm^3. Besides, the “Foam Half-Life” value in series [3] is 5 min.

With `CC(C)(CS(=O)(=O)O)NC(=O)CCNCCC[Si](C)(C)O[Si](C)(C)CCCNS(=O)(=O)C(F)(F)C(F)(F)C(F)(F)C(F)(F)F` [Example 4], the “Surface tension (dynes/cm) at 500 ppm” value in series [1] was determined as 20.1 dynes/cm.

For the compound `O=C(O)CCNCCNS(=O)(=O)C(F)(F)C(F)(F)C(F)(F)C(F)(F)C(F)(F)C(F)(F)C(F)(F)C(F)(F)F` [Example 2], in series [1], the “Surface tension (dynes/cm) at 100 ppm” value is on record as 16.8 dynes/cm and the “Surface tension (dynes/cm) at 500 ppm” value is on record as 16.5 dynes/cm. In series [2], the “Foam Volume” value is on record as 300 cm^3 and the “foam volume relative to anionic Comparative Examples C4 to C7 (in words)” value is “much lower foam volume”. Further, in series [3], the “Foam Half-Life” value is recorded as “less than 30 sec” and the “foam half-life relative to anionic Comparative Examples C4 to C7 (in words)” value is reported as “significantly shorter foam half-life”.

As for `C[N+](C)(CCCNS(=O)(=O)C(F)(F)C(F)(F)C(F)(F)C(F)(F)C(F)(F)C(F)(F)F)CC(=O)[O-]` [Comparative Example C12], in series [1], the “Surface tension (dynes/cm) at 100 ppm” value was determined as 21.0 dynes/cm and the “Surface tension (dynes/cm) at 500 ppm” value was determined as 19.4 dynes/cm. For the same compound, the “Foam Volume” value in series [2] came out at 2400 cm^3. In series [3], the “Foam Half-Life” value turned out to be 5.33 min.

With `CCN(CCC(=O)O)S(=O)(=O)C(F)(F)C(F)(F)C(F)(F)C(F)(F)C(F)(F)C(F)(F)C(F)(F)C(F)(F)F` [Comparative Example C5], in series [1], the “Surface tension (dynes/cm) at 100 ppm” value came to 24.3 dynes/cm and the “Surface tension (dynes/cm) at 500 ppm” value came out at 20.7 dynes/cm. In addition, the “Foam Volume” value in series [2] was 1500 cm^3. For the same compound, the “Foam Half-Life” value in series [3] came to 1.38 min.

For the compound `CC(C)(CS(=O)(=O)O)NC(=O)CCN1CCN(S(=O)(=O)C(F)(F)C(F)(F)C(F)(F)C(F)(F)C(F)(F)C(F)(F)C(F)(F)C(F)(F)F)CC1` [Example 3], in series [1], the “Surface tension (dynes/cm) at 100 ppm” value was 20.3 dynes/cm and the “Surface tension (dynes/cm) at 500 ppm” value was 18.5 dynes/cm.

Consider `CCN(CC(=O)O)S(=O)(=O)C(F)(F)C(F)(F)C(F)(F)C(F)(F)C(F)(F)C(F)(F)C(F)(F)C(F)(F)F` [Comparative Example C4], for which, in series [1], the “Surface tension (dynes/cm) at 100 ppm” value was determined as 19.7 dynes/cm and the “Surface tension (dynes/cm) at 500 ppm” value was determined as 16.4 dynes/cm. Moreover, in series [2], the “Foam Volume” value stood at 2600 cm^3. Besides, the “Foam Half-Life” value in series [3] was found to be 6.25 min.

As to `CCN(CCSC(CC(=O)O)C(=O)O)S(=O)(=O)C(F)(F)C(F)(F)C(F)(F)C(F)(F)C(F)(F)C(F)(F)C(F)(F)C(F)(F)F` (stereo not drawn) [Example 6], in series [1], the “Surface tension (dynes/cm) at 500 ppm” value amounted to 19.3 dynes/cm.

`CC(C)(CS(=O)(=O)O)NC(=O)CCNCCNS(=O)(=O)C(F)(F)C(F)(F)C(F)(F)C(F)(F)C(F)(F)C(F)(F)C(F)(F)C(F)(F)F` [Example 1]: in series [1], the “Surface tension (dynes/cm) at 100 ppm” value was 18.3 dynes/cm and the “Surface tension (dynes/cm) at 500 ppm” value is 17.1 dynes/cm. Also, in series [2], the “Foam Volume” value is listed as 300 cm^3 and the “foam volume relative to anionic Comparative Examples C4 to C7 (in words)” value was “much lower foam volume”. In series [3], the “Foam Half-Life” value was “less than 30 sec” and the “foam half-life relative to anionic Comparative Examples C4 to C7 (in words)” value is listed as “significantly shorter foam half-life”.

As to `CCN(CCC(=O)O)S(=O)(=O)C(F)(F)C(F)(F)C(F)(F)C(F)(F)C(F)(F)C(F)(F)C(F)(F)C(F)(F)F` [Comparative Example C6], in series [1], the “Surface tension (dynes/cm) at 100 ppm” value is on record as 19.9 dynes/cm and the “Surface tension (dynes/cm) at 500 ppm” value stood at 17.5 dynes/cm. The “Foam Volume” value in series [2] is given as 1900 cm^3. Further, the “Foam Half-Life” value in series [3] came to 4.08 min.

For `CCN(CCC(=O)NCCC[N+](C)(C)CCCS(=O)(=O)[O-])S(=O)(=O)C(F)(F)C(F)(F)C(F)(F)C(F)(F)C(F)(F)C(F)(F)C(F)(F)C(F)(F)F` [Comparative Example C9], in series [1], the “Surface tension (dynes/cm) at 100 ppm” value was found to be 20.0 dynes/cm and the “Surface tension (dynes/cm) at 500 ppm” value worked out at 18.3 dynes/cm. Moreover, in series [2], the “Foam Volume” value is given as 900 cm^3. For the same compound, the “Foam Half-Life” value in series [3] turned out to be 0.583 min.

On to `CC[N+](C)(CC)CCNS(=O)(=O)C(F)(F)C(F)(F)C(F)(F)C(F)(F)C(F)(F)C(F)(F)C(F)(F)C(F)(F)F` [Comparative Example C11], for which, in series [1], the “Surface tension (dynes/cm) at 100 ppm” value was found to be 18.1 dynes/cm and the “Surface tension (dynes/cm) at 500 ppm” value came out at 17.5 dynes/cm. Besides, the “Foam Volume” value in series [2] came to 2600 cm^3. Also, the “Foam Half-Life” value in series [3] was 5.33 min.

The values are drawn from US6201122A, “Fluoroaliphatic radical-containing anionic sulfonamido compounds” (3M Innovative Properties Company, priority 1992, dated 2001).
